# Data published in patent US20080293781A1, “Salicylic Acid Derivatives” (priority 2005, published 2008).
# Like-named read-outs stand apart in the source and are kept apart here.
# Columns and labels:
# [1] = target: T1, cyclooxygenase type-2 (COX2) (Mus musculus, UniProt Q05769); assay: Inhibition of COX2 activity (PGE2 formation) in LPS/IFNγ-induced RAW 264.7 macrophages; conditions: RAW264.7, read-out: COX2 inhibition %
# T1 sequence (Q05769 18-604): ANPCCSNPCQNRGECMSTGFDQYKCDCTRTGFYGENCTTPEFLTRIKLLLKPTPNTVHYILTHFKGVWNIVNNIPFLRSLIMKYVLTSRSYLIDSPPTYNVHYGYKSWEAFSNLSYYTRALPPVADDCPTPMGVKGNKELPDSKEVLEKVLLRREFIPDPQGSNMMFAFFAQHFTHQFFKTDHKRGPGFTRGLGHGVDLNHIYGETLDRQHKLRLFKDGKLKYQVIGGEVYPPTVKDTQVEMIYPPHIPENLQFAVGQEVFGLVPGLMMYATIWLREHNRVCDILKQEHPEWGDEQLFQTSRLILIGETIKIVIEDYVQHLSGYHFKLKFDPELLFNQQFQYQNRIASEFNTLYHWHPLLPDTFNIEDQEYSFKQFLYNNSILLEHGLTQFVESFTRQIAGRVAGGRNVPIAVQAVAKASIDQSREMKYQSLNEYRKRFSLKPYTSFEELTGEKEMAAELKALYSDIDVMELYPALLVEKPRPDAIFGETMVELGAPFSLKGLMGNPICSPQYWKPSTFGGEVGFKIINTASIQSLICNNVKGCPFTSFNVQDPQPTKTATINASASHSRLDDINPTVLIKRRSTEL
# Description: The inhibitory activity on COX2 was, instead, analyzed following the induction of this protein with 1 μg/mL of the bacterial endotoxin, lipopolysaccharide (LPS) and 10 ng/mL of interferon-γ (IFNγ) that were applied for 16 h to RAW 264.7 macrophages previously treated with 100 μM of the irreversible blocker, aspirin (ASA). Arachidonic acid served as substrate for the enzyme and the extent of PGE2 formation taken as index of COX2 activity.
# [2] = target: T2, cyclooxygenase type-1 (COX1) (Mus musculus, UniProt P22437); assay: Inhibition of COX1 activity (PGE2 release) in resting RAW 264.7 macrophages; format: cell-based; conditions: for Type of inhibition “Irreversibile”: 30 min exposure, substrate applied directly or after extensive washing, difference less than 5% = irreversible
# T2 construct: cyclooxygenase type-1 (COX1) activity was estimated in resting RAW 264.7 macrophages; endogenous in cells; host or cells: RAW 264.7 macrophages (resting)
# T2 sequence (P22437 27-602): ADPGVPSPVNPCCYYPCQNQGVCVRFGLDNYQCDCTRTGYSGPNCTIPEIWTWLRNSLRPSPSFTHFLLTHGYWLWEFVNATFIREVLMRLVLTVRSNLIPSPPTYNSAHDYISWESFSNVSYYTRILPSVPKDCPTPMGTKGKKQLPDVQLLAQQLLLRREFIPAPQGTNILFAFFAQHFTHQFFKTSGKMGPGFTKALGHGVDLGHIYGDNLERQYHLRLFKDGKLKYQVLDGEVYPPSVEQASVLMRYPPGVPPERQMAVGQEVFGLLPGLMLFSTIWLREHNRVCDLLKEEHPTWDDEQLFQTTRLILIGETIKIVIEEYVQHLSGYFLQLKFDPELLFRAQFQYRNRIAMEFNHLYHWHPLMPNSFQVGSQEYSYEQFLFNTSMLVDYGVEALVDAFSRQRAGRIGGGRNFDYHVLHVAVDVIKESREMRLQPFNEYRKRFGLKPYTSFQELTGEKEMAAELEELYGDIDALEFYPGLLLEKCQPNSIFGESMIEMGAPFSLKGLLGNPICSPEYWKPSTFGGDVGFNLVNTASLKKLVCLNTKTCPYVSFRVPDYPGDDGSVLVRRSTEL
# Description: The extent and type of inhibitory effects of this class of compounds on cyclooxygenase type-1 (COX1) activity was estimated in resting RAW 264.7 macrophages.
# The type of inhibition (irreversible vs. reversible) was determined in resting conditions by exposing the cells to the test compounds for 30 min followed by the application of the substrate either directly or after extensive washing and then incubated for additional 15 min. The presence of residual activity (difference less than 5% vs. that recorded without washing) was taken as index of the irreversible nature of the inhibitory effects of the compounds.
# [3] = system: rats (carrageenan paw edema); assay: Anti-inflammatory activity: carrageenan-induced paw edema in conscious rats; format: in vivo; set-up: concentration or dose not given beside the values; conditions: rat, intragastric, paw volume 3 hours after carrageenan, mean ± SEM
# Description: Paw edema was induced in conscious rats by subplantar injection of carrageenan (0.1 ml of 1% carrageenan suspension in carboxymethylcellulose 1%). Immediately after carrageenan injection, compounds or vehicle (CMC, 1%) were administered intragastrically to different groups of rats in a volume of 10 ml/kg. Paw volume was measured with a plethysmometer (Basile, Comerio, Italy) immediately before carrageenan injection and 3 hours afterwards. Paw edema was determined in each rat by subtracting the initial volume displacement (pre-drug) from the subsequent post-carrageenan measurement. Edema was expressed as the percent increase in paw volume relative to the preinjection value for each animal. Statistical analysis was performed with ANOVA followed by Newman Keuls test.
# [4] = Hydrolysis in acidic medium (pH 1); format: physicochemical; conditions: HCl 0.1M, 250 μM, 37°C
# Description: A solution of each compound (10 mM) in acetonitrile was added to a HCl 0.1M preheated at 37° C., the final concentration of the compound was 250 μM. Resulting solution was maintained at 37±0.5° C. and at appropriate time intervals a 20 μL aliquote of reaction solution was analysed by RP-HPLC.
# (§1) The reverse-phase HPLC procedure allowed separation and quantitation of remaining salicylic ester and of salicylic acid.
# (§2) HPLC analyses were performed with a HP 1100 chromatograph system (Agilent Technologies, Palo Alto, Calif., USA) equipped with a quaternary pump (model G1311A), a membrane degasser (G1379A), a diode-array detector (DAD) (model G1315B) integrated in the HP1100 system. Data analysis was done using a HP ChemStation system (Agilent Technologies). The analytical column was a Nucleosil 100-5C18 Nautilus (250×4.6 mm, 5 μm particle size) (Macherey-Nagel). The mobile phase consisting of acetonitrile/water (55/45) with 0.1% trifluoroacetic acid and the flow-rate was 1.2 mL/min. The injection volume was 20 μL (Rheodyne, Cotati, Calif.). The column effluent was monitored at 226 nm (for salicylic esters) and 240 nm (for salicylic acid) referenced against a 600 nm wavelength. Quantitation was done by comparison of peak areas with standards chromatographed under the same conditions.
# (§3) The hydrolysis of all esters followed first-order kinetics; the observed pseudo-first-order rate constants (kobs) for the hydrolysis were calculated from the slopes of linear plots of the natural logarithm of percent remaining salicylic ester against time and the corresponding half-lives (t1/2) were obtained from: […]
# [5] = Hydrolysis in human serum; format: in vitro ADME; conditions: 37°C, RP-HPLC, half-life of hydrolysis, read-out: Uman Serum stability (t1/2 h) (converted)
# Description: A solution of each compound (10 mM) in acetonitrile was added to human serum (Sigma) preheated at 37° C., the final concentration of the compound was 250 μM. Resulting solution was incubated at 37±0.5° C. and at appropriate time intervals 500 μL of reaction mixture was withdrawn and added to 750 μL of acetonitrile containing 0.1% trifluoroacetic acid in order to deproteinize the serum. Sample was sonicated, vortexed and then centrifuged for 10′ at 2150 g, The clear supernatant was filtered by 0.45 μm PTFE filters (Alltech) and analysed by RP-HPLC.
# as §1, §2, §3
# [6] = system: Male Wistar rats (glandular mucosa of the stomach); assay: Gastrolesive activity: gastric mucosal lesion index in rats; format: in vivo; conditions: rat, aspirin 120 mg/kg intragastric or equimolar doses, 3 hours after treatment, mean ± SEM
# Description: Male Wistar rats, […] (Harlan, S. Pietro al Natisone, Italy) were individually housed in hanging stainless-steel cages with grid floors, at constant room temperature (25±1° C.) and humidity (60±5%), with an artificial 12:12 h light/dark cycle. They were deprived of food but not of water 24 h before the experiments. Groups of rats (n=8-10) were given aspirin (Acetylsalicylic acid) 120 mg/kg by intragastric route or equimolar doses of the compounds under study. Rats were sacrificed 3 hours after the administration of the compounds. Immediately after the sacrifice, the stomachs were removed, opened along the lesser curvature and examined for the assessment of mucosal lesions, the stomachs were laid on a flat surface under a stereomicroscope. The glandular mucosa was examined and each individual hemorrhagic lesion was measured along its greatest length (<1 mm: rating=1; 1-2 mm: rating=2; >2 mm: rating according to their greatest length). The lengths of the lesions were summed to give an overall total, designated as the lesion index, for each stomach. Statistical analysis was performed with ANOVA followed by Newman Keuls test.
# [7] = 10 μM, resting RAW 264.7 macrophages, arachidonic acid 1 μM
# [8] = 30 μM, resting RAW 264.7 macrophages, arachidonic acid 1 μM
# [9] = RAW264.7, read-out: COX1 inhibition %
SMILES,melting point,pH 1 stability (% after 3 h) [4],half-life at 250 μM [5],inhibition at 1 µM [1],inhibition at 10 µM [1],inhibition at 30 µM [1],"COX1 inhibition % [2, 7]","COX1 inhibition % [2, 8]",Type of inhibition “Irreversibile” [2],Anti inflammatory activity Paw edema (% increase) [3],Gastrotoxicity Lesion index (mm) [6],also measured
"O=C(CCCO[N+](=O)[O-])Oc1ccccc1C(=O)O [(2), 2-{[4-(nitrooxy)butanoyl]oxy}benzoic acid]",,,,6%,15%,44%,62%,77%,YES,,,"inhibition at 1 µM [2, 9]: 21%"
"O=C(CCCCO[N+](=O)[O-])Oc1ccccc1C(=O)O [(3), 2-{[5-(nitrooxy)pentanoyl]oxy}benzoic acid]",,,,5%,27%,43%,66%,77%,YES,,,"inhibition at 1 µM [2, 9]: 11%"
"O=C(CCC(CO[N+](=O)[O-])O[N+](=O)[O-])Oc1ccccc1C(=O)O (centres unmarked) [Compound (6), 2-{[4,5-bis(nitrooxy)pentanoyl]oxy}benzoic acid]",,>85%,4.08 h,,,,,,,29.95 ± 7.30 %,0.50 ± 0.22 mm,
"O=C(CCCC(CO[N+](=O)[O-])O[N+](=O)[O-])Oc1ccccc1C(=O)O (centres unmarked) [Compound (7), 2-{[5,6-bis(nitrooxy)hexanoyl]oxy}benzoic acid]",,>85%,4.87 h,,,,,,,26.19 ± 3.58 %,0.85 ± 0.64 mm,
"CCC(=O)Oc1ccccc1C(=O)O [Propanoylsalicylic acid, reference compound]",,,,,,,,,,48.13 ± 6.54%,52.00 ± 11.78 mm,

# Now from value to compound, other results behind:
melting point,pH 1 stability (% after 3 h) [4],half-life at 250 μM [5],SMILES,inhibition at 1 µM [1],inhibition at 10 µM [1],inhibition at 30 µM [1],"COX1 inhibition % [2, 7]","COX1 inhibition % [2, 8]",Type of inhibition “Irreversibile” [2],Anti inflammatory activity Paw edema (% increase) [3],Gastrotoxicity Lesion index (mm) [6],also measured
94.5 to 95 °C,,,O=C(Cc1ccc(OCC(CO[N+](=O)[O-])O[N+](=O)[O-])cc1)Oc1ccccc1C(=O)O (centres unmarked),,,,,,,,,
,>90%,1.37 h,"CC(=O)Oc1ccccc1C(=O)O [Acetylsalicylic acid, reference compound]",2%,5%,20%,27%,53%,YES,32.95 ± 3.19 %,44.75 ± 4.66 mm,"inhibition at 1 µM ([2]; RAW264.7, 1 μM, resting RAW 264.7 macrophages, arachidonic acid 1 μM, read-out: COX1 inhibition %): < 2%"
152 to 153.9 °C,,,"O=C(CCOc1no[n+]([O-])c1-c1ccccc1)Oc1ccccc1C(=O)O [Compound 12, 2-[(3-{[5-oxido-4-phenyl-1,2,5-oxadiazol-3-yl]oxy}propanoyl)oxy]benzoic acid]",,,,,,,,,
,>90%,0.26 h,"O=C(CCO[N+](=O)[O-])Oc1ccccc1C(=O)O [Compound (1), 2-{[3-(nitrooxy)propanoyl]oxy}benzoic acid]",,,,,,,,,
169 to 170 °C,>90%,0.44 h,"O=C(CCOc1no[n+]([O-])c1S(=O)(=O)c1ccccc1)Oc1ccccc1C(=O)O [Compound (11), 2-[(3-{[5-oxido-4-(phenylsulfonyl)-1,2,5-oxadiazol-3-yl]oxy}propanoyl)oxy]benzoic acid]",,,,,,,34.88 ± 4.69 %,0.50 ± 0.31 mm,
